Consider two compounds from patent publication US10501497B2, “Cyclic polypeptides, method for obtaining them and the therapeutic use thereof” (AXOLTIS PHARMA, priority 2015, dated 2019).

For one data set, the target named is neprylysine (Homo sapiens, UniProt P08473). In words: Enzymatic digestion with neprylysine analysed by LC/MS/MS. Type of data set: in vitro ADME. Conditions: for Percentage of digestion / metabolised at 0.5 h: neprylysine; for Area under the curve in the presence of enzyme: neprylysine diluted by a tenth in water; for Area under the control curve (no enzyme): LC/MS/MS; for metabolised at 0.5 h: read-out: Percentage of digestion. On the procedure:
A so-called “control” sample without enzyme and effected in parallel was performed to establish an analytical reference for each parameter explored. The polypeptides are diluted in deoxygenated water to maintain the stability of both forms over time. Digestions were analyzed by the LC/MS/MS mass spectrometry technique. The percentage of digestion corresponds, for a given polypeptide, to the percentage of the area under the curve in the presence of enzyme relative to the area under the control curve for the same polypeptide.

Data set [1] is described as follows: physchem. Conditions: aqueous 0.9% NaCl solution.
Description: Two weighings of 0.5 mg are made in a 1.5 ml micro tube for the polypeptide
The tubes are then vortexed for a few seconds and one drop of each polypeptide solution so obtained is placed on a glass slide for observation under an optical microscope.
Data set [2] is described as follows: physchem. It counts as physicochemical. How it is done: In the case of the polypeptide of amino acid sequence: […] Solubility is particularly important for IT injections because there is a limitation of the injection volume, a limit which is much greater than that for peripheral injections, and a limitation in the solvents and solutions that may be used, for example. The use of a 5% glucose solution improves the solubility of the polypeptide of amino acid sequence: […] [SEQ ID NO: 58] by bringing it to around 10 mg/ml, wherein this solution remains an isotonic solution that is compatible with an IT injection.

Values after ≈ are worked out from the molar mass of the structure shown. Like-named read-outs stand apart in the source and are kept apart here. Bridge positions count the residues as written; N and C are the ends. Peptide text beside a SMILES is read from it.

neprylysine, sequence (P08473 whole entry): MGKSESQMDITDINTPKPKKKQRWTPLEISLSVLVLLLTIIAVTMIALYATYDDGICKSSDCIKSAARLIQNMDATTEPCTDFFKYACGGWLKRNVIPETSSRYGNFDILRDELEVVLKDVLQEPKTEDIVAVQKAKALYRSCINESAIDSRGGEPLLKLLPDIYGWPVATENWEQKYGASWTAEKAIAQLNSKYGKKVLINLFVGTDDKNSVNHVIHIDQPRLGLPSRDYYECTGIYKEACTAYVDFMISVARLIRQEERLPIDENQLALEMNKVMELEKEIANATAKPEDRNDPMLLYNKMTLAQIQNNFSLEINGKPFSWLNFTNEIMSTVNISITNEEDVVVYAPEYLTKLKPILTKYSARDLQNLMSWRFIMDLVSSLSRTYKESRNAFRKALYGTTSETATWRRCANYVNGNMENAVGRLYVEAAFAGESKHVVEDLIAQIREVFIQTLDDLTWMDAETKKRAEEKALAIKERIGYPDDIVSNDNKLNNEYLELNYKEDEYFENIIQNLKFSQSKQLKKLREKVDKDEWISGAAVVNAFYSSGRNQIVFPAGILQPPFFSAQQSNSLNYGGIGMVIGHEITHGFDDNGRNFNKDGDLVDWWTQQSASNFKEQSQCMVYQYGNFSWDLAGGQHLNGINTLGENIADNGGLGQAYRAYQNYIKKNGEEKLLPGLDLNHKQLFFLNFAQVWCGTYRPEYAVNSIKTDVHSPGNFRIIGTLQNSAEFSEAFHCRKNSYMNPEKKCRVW

With `N=C(N)NCCC[C@H](NC(=O)[C@H](CO)NC(=O)[C@H](CS)NC(=O)[C@H](CO)NC(=O)[C@H](CO)NC(=O)[C@H](Cc1c[nH]c2ccccc12)NC(=O)CNC(=O)[C@H](CO)NC(=O)[C@@H](N)Cc1c[nH]c2ccccc12)C(=O)N[C@@H](CO)C(=O)N[C@@H](CS)C(=O)NCC(=O)O` [SEQ ID NO: 58, W-S-G-W-S-S-C-S-R-S-C-G] (H-WSGWSSCSRSCG-OH; N-terminus and C-terminus assumed), the values for the Percentage of digestion result at neprylysine (T = 0 min) and on neprylysine (T = 30 min) were “none” and 28%, respectively. The results for the “Area under the curve in the presence of enzyme” value (“Area under the curve” for short) at neprylysine (T = 0 min) and at neprylysine (T = 30 min) were 797200 and 576500, respectively. Besides, the “Area under the control curve (no enzyme)” value on neprylysine (T = 0 min) is on record as 788400; on neprylysine (T = 30 min) it was 802800. At neprylysine (isolated neprylysine enzyme, T = 30 min), the metabolised at 0.5 h was 28%. Moreover, the solubility (commonly how much of the substance goes into solution per volume) in “physchem [1]” was approximately 2000 µg/mL (≈ 1540 µM); in “physchem [2]” (solubility in 5% glucose solution), approximately 10000 µg/mL (≈ 7680 µM); in the data set “physchem [2]” (solubility in the physiological liquid), 1000 to 2000 µg/mL (≈ 768 to 1540 µM).
`N=C(N)NCCC[C@@H]1NC(=O)[C@H](CO)NC(=O)[C@@H](NC(=O)[C@H](CO)NC(=O)[C@H](CO)NC(=O)[C@H](Cc2c[nH]c3ccccc23)NC(=O)CNC(=O)[C@H](CO)NC(=O)[C@@H](N)Cc2c[nH]c3ccccc23)CSSC[C@@H](C(=O)NCC(=O)O)NC(=O)[C@H](CO)NC1=O` [SEQ ID NO: 2, W-S-G-W-S-S-C-S-R-S-C-G] (H-WSGWSSCSRSCG-OH; disulfide 7-11): on neprylysine (T = 0 min), the Percentage of digestion entry is “none”, the “Area under the curve” value is reported as 3220000 and the “Area under the control curve (no enzyme)” value turned out to be 3008000. Further, at neprylysine (T = 30 min), the Percentage of digestion was 8.5%, the “Area under the curve” value was 3401000 and the “Area under the control curve (no enzyme)” value worked out at 3722000. Further, the metabolised at 0.5 h at neprylysine (isolated enzyme neprilysin, T = 30 min) came to 8.5%.
